{
  "source": "patent US20230381503A1",
  "about": "“Compositions And Methods For Treating With A Combination Of Alternating Electric Fields And Ion Channel Inhibitors” (NOVOCURE GMBH, priority 2022, published 2023)",
  "key": {"[1]": {"tested_on": "pGBM cell lines (SF188 and KNS42)", "assay": "Cell count of pGBM cell lines with and without IAA94", "format": "cell-based, human", "conditions": "100 uM IAA94, FIG. 3", "description": "(§1) The cell count in different cell lines (SF188 and KNS42) with and without IAA94.\n(§2) Similar efficacy was observed when using TTFields as a treatment for pGBM (FIG. 4)."}, "pGBM": {"tested_on": "pGBM", "assay": "Invasion / migration capacity of pGBM with IAA94", "format": "cell-based, human", "conditions": "FIG. 3", "description": "as §1, §2"}, "GCE62, SF188 and KNS42": {"tested_on": "GCE62, SF188 and KNS42", "assay": "Cell proliferation of three cell lines treated with TTFields and IAA94", "format": "cell-based, human", "conditions": "TTFields and IAA94 compared to TTFields alone, FIG. 6"}, "[2]": {"tested_on": "human glioblastoma primary culture", "assay": "Cell number after TTFields plus CLIC1 inhibitor IAA94", "format": "cell-based", "conditions": "TTFields plus IAA94 vs TTFields alone or IAA94 alone, FIG. 12", "description": "Thus, the combination therapy is a very effective treatment."}},
  "data": [
    {"compound": "CC1(C2CCCC2)Cc2cc(OCC(=O)O)c(Cl)c(Cl)c2C1=O", "note": "(centres unmarked) [IAA94]", "values": [
      {"measurement": "overall cell count", "setting": "[1]", "value": "reduces overall cell count"},
      {"measurement": "invasive capacity", "setting": "pGBM; 100 uM IAA94, pGBM", "value": "reduces invasive capacity"},
      {"measurement": "capacity of pGBM to proliferate, invade and migrate", "setting": "pGBM; inhibition of CLIC1 and CLIC4 by IAA94", "value": "reduced the capacity of pGBM to proliferate, invade and migrate"},
      {"measurement": "cell proliferation, combination with TTFields", "setting": "GCE62, SF188 and KNS42", "value": "significantly reduced cell proliferation compared to TTFields alone"},
      {"measurement": "cell number, combination with TTFields", "setting": "[2]", "value": "inhibits cell proliferation and/or kills more cells that TTFields alone or IAA94 alone"}
    ]}
  ]
}
